Experimental data as given in patent US11612595B2, “Compositions and methods for treating rheumatoid arthritis” (Generos Biopharma Ltd., priority 2017, dated 2023).

System: adjuvant-induced arthritis (AIA) rat model
Assay: AIA rat model, paw volume and clinical scores
Assay type: in vivo, rats
Protocol: FIG. 3 is a graph illustrating the treatment scheme in an adjuvant-induced arthritis (AIA) rat model. In the prophylactic group, treatment starts from day 0 and administered every other day. In the therapeutic group, treatment starts from day 13 and was administered every other day.
Three groups (10 rats in each group) of female rats (age 8 weeks) were subject to AIA model induction and then to different treatment schemes. Specifically, 100 ug mBSA mixed with CFA was injected s.c. to flank near tail, and one dose of B. pertusiss was injected i.p. the next day to boost the immune reaction. The first of the three groups of rats were treated with DMSO (Vehicle). The second of the three groups of rats were treated with pimozide (Sigma-Aldrich) 10 mg/kg of body weight (same unit are used throughout this application) in 30% PEG300 solution via intraperitoneal injection with collagen injection starting from day 7 (Therapeutic). The last of the three groups of rats were treated with pimozide (Sigma-Aldrich) 10 mg/kg in 30% PEG300 solution via intraperitoneal injection either with collagen injection starting from day 0. As a control, a fourth group of female rats (5 rats) were spared the AIA model induction and were not treated. The inventors collected data of the weight, paw volume, and clinical scores every three days and performed statistic analysis.
The clinical scores were derived according to the scheme in Table 1.
The method used in the statistic analysis was Student's t test, unpaired, two-tailed analysis.

[1] = Prophylactic group, 10 mg/kg i.p. from day 0, starting from day 13
[2] = Therapeutic group, 10 mg/kg i.p., starting from day 17

O=c1[nH]c2ccccc2n1C1CCN(CCCC(c2ccc(F)cc2)c2ccc(F)cc2)CC1 [pimozide, 1-[1-[4,4-bis(4-fluorophenyl)butyl]-4-piperidinyl]-1,3-dihydro-2H-benzimidazole-2-one]
significantly decreased: clinical score vs Vehicle group [1] | paw volume vs Vehicle group [1] | clinical score vs Vehicle group [2] | paw volume vs Vehicle group [2]
